Legend:
Assay type in all cases: in vivo
[1] = system: yellow nutsedge (Cyperus esculentus); assay: Test E pre-/postemergence greenhouse test, plant response rating 0-100; conditions: Preemergence, scale 0 to 100
[2] = system: johnsongrass (Sorghum halepense); assay: as above; conditions: Preemergence, scale 0 to 100
[3] = system: large (Lg) crabgrass (Digitaria sanguinalis); assay: as above; conditions: Preemergence, scale 0 to 100
[4] = system: green foxtail (Setaria viridis); assay: as above; conditions: Preemergence, scale 0 to 100
[5] = system: waterhemp_RES1, (ALS & Triazine resistant common waterhemp, Amaranthus rudis); assay: Test E postemergence greenhouse test, plant response rating 0-100; conditions: scale 0 to 100
How it was run: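 Visual ratings, 0 (no effect) to 100 (complete control), made versus controls 14–21 days after postemergence application in the greenhouse. Plants were at 1- to 4-leaf stage (2–18 cm) in peat moss/vermiculite potting medium.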

[6] = system: Italian ryegrass (Lolium multiflorum); assay: Test E pre-/postemergence greenhouse test, plant response rating 0-100; conditions: scale 0 to 100; for pest or weed control at 31 g/ha: 31 g ai/ha; for Ryegrass, Italian plant response rating: Preemergence
How it was run: (§1)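 Pre: seeded silt loam sprayed; post: 1–4-leaf plants (2–18 cm) in peat-based mix sprayed. Formulation: non-phytotoxic solvent + surfactant. Greenhouse 14–21 d; visual rating vs controls, 0 = no effect, 100 = complete control.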

[7] = system: velvetleaf (Abutilon theophrasti); assay: as above; conditions: Preemergence, scale 0 to 100
How it was run: as §1

[8] = system: surinam grass (Brachiaria decumbens); assay: as above; conditions: Preemergence, scale 0 to 100
How it was run: as §1

[9] = system: lambsquarters (Chenopodium album); assay: as above; conditions: Preemergence, scale 0 to 100
How it was run: as §1

[10] = system: barnyardgrass (Echinochloa crus-galli); assay: as above; conditions: scale 0 to 100; for pest or weed control at 31 g/ha: 31 g ai/ha; for Barnyardgrass plant response rating: Preemergence
How it was run: as §1

[11] = system: kochia (Kochia scoparia); assay: as above; conditions: Preemergence, scale 0 to 100
How it was run: as §1

[12] = system: ragweed (common ragweed, Ambrosia elatior); assay: as above; conditions: Preemergence, scale 0 to 100
How it was run: as §1

[13] = system: goosegrass (Eleusine indica); assay: as above; conditions: Preemergence, scale 0 to 100
[14] = system: giant foxtail (Setaria faberii); assay: as above; conditions: Preemergence, scale 0 to 100
[15] = system: morningglory (Ipomoea coccinea); assay: as above; conditions: Preemergence, scale 0 to 100
[16] = system: smartweed (ladysthumb smartweed, Polygonum persicaria); assay: as above; conditions: Preemergence, scale 0 to 100
[17] = system: smartweed (ladysthumb smartweed, Polygonum persicaria); assay: as above; conditions: Postemergence, 250 g ai/ha; scale 0 to 100
[18] = Lolium multiflorum, post-emergence, Postemergence
[19] = Lolium multiflorum, post-emergence, Postemergence, 62 g ai/ha
[20] = Lolium multiflorum, post-emergence, Postemergence, 125 g ai/ha
[21] = Lolium multiflorum, post-emergence, Postemergence, 250 g ai/ha
[22] = Echinochloa crus-galli, post-emergence, Postemergence
[23] = Echinochloa crus-galli, post-emergence, Postemergence, 62 g ai/ha
[24] = Echinochloa crus-galli, post-emergence, Postemergence, 125 g ai/ha
[25] = Echinochloa crus-galli, post-emergence, Postemergence, 250 g ai/ha

`C#CCn1cc(C(=O)c2ccccc2)c(-c2cc(Cl)cc(Cl)c2)n1` [Compound 39, [3-(3,5-dichlorophenyl)-1-(2-propyn-1-yl)-1H-pyrazol-4-yl]phenylmethanone] was tested, and the “Nutsedge, Yellow plant response rating” value ([1]; 62 g ai/ha) was 0, the “Nutsedge, Yellow plant response rating” value ([1]; 125 g ai/ha) was 0 and the “Nutsedge, Yellow plant response rating” value ([1]; 250 g ai/ha) was 0. For the same molecule, the “Nutsedge, Yellow plant response rating” value ([1]; 500 g ai/ha) was 0, the “Johnsongrass plant response rating” value ([2]; 62 g ai/ha) was 0 and the “Johnsongrass plant response rating” value ([2]; 125 g ai/ha) was 0. The “Johnsongrass plant response rating” value ([2]; 250 g ai/ha) was 0, the “Johnsongrass plant response rating” value ([2]; 500 g ai/ha) was 0 and the “Crabgrass, Large plant response rating” value ([3]; 62 g ai/ha) was 0. For the same molecule, the “Crabgrass, Large plant response rating” value ([3]; 125 g ai/ha) was 0, the “Crabgrass, Large plant response rating” value ([3]; 250 g ai/ha) was 0 and the “Crabgrass, Large plant response rating” value ([3]; 500 g ai/ha) was 0. For the same molecule, the “Foxtail, Green plant response rating” value ([4]; 62 g ai/ha) was 0, the “Foxtail, Green plant response rating” value ([4]; 125 g ai/ha) was 0 and the “Foxtail, Green plant response rating” value ([4]; 250 g ai/ha) was 0. The “Foxtail, Green plant response rating” value ([4]; 500 g ai/ha) was 0, the “Plant response rating, Waterhemp_RES1” value ([5]; 31 g ai/ha) was 85 and the “Plant response rating, Waterhemp_RES1” value ([5]; 62 g ai/ha) was 85. The “Plant response rating, Waterhemp_RES1” value ([5]; 125 g ai/ha) was 90, the “Plant response rating, Waterhemp_RES1” value ([5]; 250 g ai/ha) was 90 and the “Plant response rating, Waterhemp_RES1” value ([5]; 500 g ai/ha) was 95. The pest or weed control at 31 g/ha [6, 18] was 0%, the pest or weed control at 62 g/ha [6, 19] was 0% and the pest or weed control at 125 g/ha [6, 20] was 0%. For the same molecule, the pest or weed control at 250 g/ha [6, 21] was 0%, the pest or weed control at 500 g/ha ([6]; Lolium multiflorum, post-emergence, Postemergence, 500 g ai/ha) was 0% and the “Ryegrass, Italian plant response rating” value ([6]; 62 g ai/ha) was 0. For the same molecule, the “Ryegrass, Italian plant response rating” value ([6]; 125 g ai/ha) was 0, the “Ryegrass, Italian plant response rating” value ([6]; 250 g ai/ha) was 0 and the “Ryegrass, Italian plant response rating” value ([6]; 500 g ai/ha) was 0. The “Velvetleaf plant response rating” value ([7]; 62 g ai/ha) was 15, the “Velvetleaf plant response rating” value ([7]; 125 g ai/ha) was 75 and the “Velvetleaf plant response rating” value ([7]; 250 g ai/ha) was 90. For the same molecule, the “Velvetleaf plant response rating” value ([7]; 500 g ai/ha) was 100, the “Surinam Grass plant response rating” value ([8]; 62 g ai/ha) was 0 and the “Surinam Grass plant response rating” value ([8]; 125 g ai/ha) was 0. The “Surinam Grass plant response rating” value ([8]; 250 g ai/ha) was 0, the “Surinam Grass plant response rating” value ([8]; 500 g ai/ha) was 0 and the “Lambsquarters plant response rating” value ([9]; 62 g ai/ha) was 90. The “Lambsquarters plant response rating” value ([9]; 125 g ai/ha) was 95, the “Lambsquarters plant response rating” value ([9]; 250 g ai/ha) was 90 and the “Lambsquarters plant response rating” value ([9]; 500 g ai/ha) was 100. The pest or weed control at 31 g/ha [10, 22] was 0%, the pest or weed control at 62 g/ha [10, 23] was 0% and the pest or weed control at 125 g/ha [10, 24] was 0%. For the same molecule, the pest or weed control at 250 g/ha [10, 25] was 0%, the pest or weed control at 500 g/ha ([10]; Echinochloa crus-galli, post-emergence, Postemergence, 500 g ai/ha) was 10% and the “Barnyardgrass plant response rating” value ([10]; 62 g ai/ha) was 0. The “Barnyardgrass plant response rating” value ([10]; 125 g ai/ha) was 0, the “Barnyardgrass plant response rating” value ([10]; 250 g ai/ha) was 0 and the “Barnyardgrass plant response rating” value ([10]; 500 g ai/ha) was 0. For the same molecule, the “Kochia plant response rating” value ([11]; 62 g ai/ha) was 0, the “Kochia plant response rating” value ([11]; 125 g ai/ha) was 30 and the “Kochia plant response rating” value ([11]; 250 g ai/ha) was 65. For the same molecule, the “Kochia plant response rating” value ([11]; 500 g ai/ha) was 75, the “Ragweed plant response rating” value ([12]; 62 g ai/ha) was 60 and the “Ragweed plant response rating” value ([12]; 125 g ai/ha) was 0. For the same molecule, the “Ragweed plant response rating” value ([12]; 250 g ai/ha) was 65, the “Ragweed plant response rating” value ([12]; 500 g ai/ha) was 30 and the “Goosegrass plant response rating” value ([13]; 62 g ai/ha) was 0. The “Goosegrass plant response rating” value ([13]; 125 g ai/ha) was 0, the “Goosegrass plant response rating” value ([13]; 250 g ai/ha) was 0 and the “Goosegrass plant response rating” value ([13]; 500 g ai/ha) was 0. The “Foxtail, Giant plant response rating” value ([14]; 62 g ai/ha) was 0, the “Foxtail, Giant plant response rating” value ([14]; 125 g ai/ha) was 0 and the “Foxtail, Giant plant response rating” value ([14]; 250 g ai/ha) was 0. For the same molecule, the “Foxtail, Giant plant response rating” value ([14]; 500 g ai/ha) was 0, the “Morningglory plant response rating” value ([15]; 62 g ai/ha) was 0 and the “Morningglory plant response rating” value ([15]; 125 g ai/ha) was 0. The “Morningglory plant response rating” value ([15]; 250 g ai/ha) was 0 and the “Morningglory plant response rating” value ([15]; 500 g ai/ha) was 0.
In the case of `Cn1cc(C(=O)c2ccccc2)c(-c2cc(Cl)cc(Cl)c2)n1` [Compound 54, [3-(3,5-dichlorophenyl)-1-methyl-1H-pyrazol-4-yl]phenylmethanone], the “Smartweed plant response rating” value ([16]; 125 g ai/ha) is reported as 0, the “Smartweed plant response rating” value ([16]; 250 g ai/ha) is reported as 0 and the pest or weed control at 31 g/ha [6, 18] is reported as 0%. It also gave a pest or weed control at 62 g/ha [6, 19] of 0%, a pest or weed control at 125 g/ha [6, 20] of 0% and a pest or weed control at 250 g/ha [6, 21] of 0%. For the same molecule, the “Velvetleaf plant response rating” value ([7]; 125 g ai/ha) was 87, the “Velvetleaf plant response rating” value ([7]; 250 g ai/ha) was 78 and the “Lambsquarters plant response rating” value ([9]; 125 g ai/ha) was 68. For the same molecule, the “Lambsquarters plant response rating” value ([9]; 250 g ai/ha) was 86, the “Plant response rating, Lambsquarters” value ([9]; 1000 g ai/ha) was 99 and the pest or weed control at 16 g/ha ([10]; Echinochloa crus-galli, post-emergence, Postemergence, 16 g ai/ha) was 0%. For the same molecule, the pest or weed control at 31 g/ha [10, 22] was 0%, the pest or weed control at 62 g/ha [10, 23] was 0% and the pest or weed control at 125 g/ha [10, 24] was 0%. The pest or weed control at 250 g/ha [10, 25] was 0%, the “Kochia plant response rating” value ([11]; 125 g ai/ha) was 0 and the “Kochia plant response rating” value ([11]; 250 g ai/ha) was 28. For the same molecule, the “Plant response rating, Kochia” value ([11]; 1000 g ai/ha) was 97, the “Ragweed plant response rating” value ([12]; 125 g ai/ha) was 35 and the “Ragweed plant response rating” value ([12]; 250 g ai/ha) was 62. The “Plant response rating, Smartweed” value [17] was 0, the “Morningglory plant response rating” value ([15]; 125 g ai/ha) was 7 and the “Morningglory plant response rating” value ([15]; 250 g ai/ha) was 12.

From US10167262B2, “Herbicidal substituted 3-arylpyrazoles” (FMC CORPORATION, priority 2014, dated 2019)
